In patent US20060235222A1, “Indole-derivative modulators of steroid hormone nuclear receptors” (ELI LILLY AND COMPANY, priority 2003, published 2006):

Legend:
human MR = molecular target: T1, human MR (Homo sapiens, UniProt P08235); experiment: Mineralocorticoid Receptor Binding Assay (Method 1), [3H]-aldosterone competition; conditions: 0.5 nM [3H]-aldosterone, human MR expressed in Sf9 cells
T1 construct: The full length human MR gene is cloned from a human kidney or human brain cDNA library; inferred from own knowledge of the pAcHLT vector (N); made in house; host or cells: Sf9 insect cells (baculovirus)
T1 sequence (P08235 1-984): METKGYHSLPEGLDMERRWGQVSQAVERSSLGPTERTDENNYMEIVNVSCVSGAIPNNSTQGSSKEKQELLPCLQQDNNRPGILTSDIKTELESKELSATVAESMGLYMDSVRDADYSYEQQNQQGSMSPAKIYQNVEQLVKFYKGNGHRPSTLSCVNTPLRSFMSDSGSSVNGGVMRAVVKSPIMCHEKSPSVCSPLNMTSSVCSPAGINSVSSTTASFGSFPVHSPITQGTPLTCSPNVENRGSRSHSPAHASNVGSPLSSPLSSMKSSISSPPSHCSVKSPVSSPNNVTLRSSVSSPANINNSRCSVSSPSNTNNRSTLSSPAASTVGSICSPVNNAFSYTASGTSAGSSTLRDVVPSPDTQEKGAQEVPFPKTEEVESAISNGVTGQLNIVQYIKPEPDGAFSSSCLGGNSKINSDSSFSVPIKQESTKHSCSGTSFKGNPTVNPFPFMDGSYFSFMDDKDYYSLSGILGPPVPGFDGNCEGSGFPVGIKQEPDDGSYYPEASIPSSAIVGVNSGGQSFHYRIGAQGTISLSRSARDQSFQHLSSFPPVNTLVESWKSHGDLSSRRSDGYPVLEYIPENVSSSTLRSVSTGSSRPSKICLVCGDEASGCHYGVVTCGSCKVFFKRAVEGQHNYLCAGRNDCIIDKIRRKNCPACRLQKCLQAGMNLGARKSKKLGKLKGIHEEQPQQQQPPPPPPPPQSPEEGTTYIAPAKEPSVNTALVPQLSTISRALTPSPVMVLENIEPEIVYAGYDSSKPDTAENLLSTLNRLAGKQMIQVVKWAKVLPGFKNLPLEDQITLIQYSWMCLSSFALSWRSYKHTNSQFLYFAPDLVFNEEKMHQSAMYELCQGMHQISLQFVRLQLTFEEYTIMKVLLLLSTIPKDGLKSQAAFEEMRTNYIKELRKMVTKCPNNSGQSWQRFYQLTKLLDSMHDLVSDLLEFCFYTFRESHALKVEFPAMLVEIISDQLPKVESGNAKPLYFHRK
Summary of the method: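 Full-length human MR expressed in Sf9 cells via baculovirus; lysate supernatant (about 20-25 μg protein) incubated with 0.5 nM [3H]-aldosterone and test compound for about 16 h at 4° C. Buffer was Tris/molybdate/phosphate/pyrophosphate with 10% glycerol, pH 7.5; filter-bound complex counted by scintillation.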

glucocorticoid receptor = molecular target: T2, glucocorticoid receptor (Homo sapiens, UniProt P04150); experiment: Glucocorticoid Receptor Binding Assay (Method 1), [3H]-dexamethasone competition, A549 cell extract; conditions: 1.86 nM [3H]-dexamethasone, read-out: GR Ki (nM) Method 1
T2 construct: containing 50-200 ug of A549 cell extract and 1.86 nM; host or cells: A549 human lung epithelial cells
T2 sequence (P04150 1-777): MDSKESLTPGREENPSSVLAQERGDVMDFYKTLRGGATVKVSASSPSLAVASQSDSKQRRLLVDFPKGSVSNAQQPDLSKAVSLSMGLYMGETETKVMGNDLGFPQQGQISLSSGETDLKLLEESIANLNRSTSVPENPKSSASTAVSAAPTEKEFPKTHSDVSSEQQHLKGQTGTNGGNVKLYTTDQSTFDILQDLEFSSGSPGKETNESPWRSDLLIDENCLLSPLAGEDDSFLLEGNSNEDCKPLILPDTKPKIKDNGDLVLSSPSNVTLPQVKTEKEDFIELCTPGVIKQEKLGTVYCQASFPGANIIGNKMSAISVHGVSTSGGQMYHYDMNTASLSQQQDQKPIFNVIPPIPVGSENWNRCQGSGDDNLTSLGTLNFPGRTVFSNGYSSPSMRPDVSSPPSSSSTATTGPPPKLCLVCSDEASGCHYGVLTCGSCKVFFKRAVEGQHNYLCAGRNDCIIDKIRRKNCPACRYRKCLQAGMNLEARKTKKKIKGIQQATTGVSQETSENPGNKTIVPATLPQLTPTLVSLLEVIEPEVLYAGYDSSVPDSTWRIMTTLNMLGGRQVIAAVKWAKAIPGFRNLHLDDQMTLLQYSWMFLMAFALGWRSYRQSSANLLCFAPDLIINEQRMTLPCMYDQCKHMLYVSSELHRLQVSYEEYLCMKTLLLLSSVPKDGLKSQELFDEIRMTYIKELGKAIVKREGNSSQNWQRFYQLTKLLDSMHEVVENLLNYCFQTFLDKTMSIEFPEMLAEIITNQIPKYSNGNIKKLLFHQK
Summary of the method: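 Receptor source: sonicated extract of human A549 lung epithelial cells in glycerol/Tris-HCl pH 7.2 buffer with sodium molybdate. [3H]-dexamethasone competition run 16 h at 4 °C; unbound radioligand stripped with dextran-coated charcoal (8 min, RT) and receptor-bound radioactivity quantified by scintillation counting.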

| Structure (SMILES) | Ki (human MR) [nM] | Ki (glucocorticoid receptor) [nM] |
| --- | --- | --- |
| O=C(O)Cn1cc(C(c2ccccc2)(c2ccccc2)c2ccccc2)c2ccccc21 [Example 51, (3-Trityl-indol-1-yl)-acetic acid] | < 1000 | < 10000 |
| O=C(O)CCn1cc(C(c2ccccc2)(c2ccccc2)c2ccccc2)c2ccccc21 [Example 52, 3-(3-Trityl-indol-1-yl)-propionic acid] | < 10000 | < 10000 |
| CCC(CC)(c1ccccc1F)c1c[nH]c2c(NS(C)(=O)=O)cccc12 [Example 68, N-{3-[1-Ethyl-1-(2-fluoro-phenyl)-propyl]-1H-indol-7-yl}-methanesulfonamide] | < 500 | < 500 |
| CCCC(CCC)(c1ccc(OC)cc1)c1c[nH]c2c(NS(C)(=O)=O)cccc12 [Example 69, N-{3-[1-(4-Methoxy-phenyl)-1-propyl-butyl]-1H-indol-7-yl}-methanesulfonamide] | < 500 | < 500 |
| CCCC(C)(c1ccccc1)c1c[nH]c2c(NS(C)(=O)=O)cccc12 (stereo not shown) [Example 70, N-[3-(1-Methyl-1-phenyl-butyl)-1H-indol-7-yl]-methanesulfonamide] | < 500 | < 500 |
| CCC(CC)(c1cccc(C)c1)c1c[nH]c2c(NS(C)(=O)=O)cccc12 [Example 71, N-[3-(1-Ethyl-1-m-tolyl-propyl)-1H-indol-7-yl]-methanesulfonamide] | < 500 | < 500 |
| CCC(CC)(c1cccc(F)c1)c1c[nH]c2c(NS(C)(=O)=O)cccc12 [Example 72, N-{3-[1′-Ethyl-1-(3-fluoro-phenyl)-propyl]-1H-indol-7-yl}-methanesulfonamide] | < 500 | < 500 |
| CCC(C)(c1ccc(F)cc1)c1c[nH]c2c(NS(C)(=O)=O)cccc12 (stereo not shown) [Example 73, N-{3-[1-(4-Fluoro-phenyl)-1-methyl-propyl]-1H-indol-7-yl}-methanesulfonamide] | < 500 | < 500 |
| CCC(CC)(c1ccc(F)cc1)c1c[nH]c2c([N+](=O)[O-])cccc12 [Example 75, 3-[1-Ethyl-1-(4-fluoro-phenyl)-propyl]-7-nitro-1H-indole] | < 500 | < 500 |
| CC(C)(c1ccc(F)cc1)c1c[nH]c2c(NS(C)(=O)=O)cccc12 [Example 76, N-{3-[1-(4-Fluoro-phenyl)-1-methyl-ethyl]-1H-indol-7-yl}-methanesulfonamide] | < 500 | < 500 |
| CC(C)(c1ccccc1)c1c[nH]c2c(NS(C)(=O)=O)cccc12 [Example 78, N-[3-(1-Methyl-1-phenyl-ethyl)-1H-indol-7-yl]-methanesulfonamide] | < 500 | < 500 |
| CCC(CC)(c1ccc(F)cc1)c1c[nH]c2c(N)cccc12 [Example 79, 3-[1-Ethyl-1-(4-fluoro-phenyl)-propyl]-1H-indol-7-ylamine] | < 500 | < 1000 |

The next lines start with the values.

| Ki (human MR) [nM] | Ki (glucocorticoid receptor) [nM] | Structure (SMILES) |
| --- | --- | --- |
| < 500 | < 500 | CC(C)(c1ccc2ncccc2c1)c1c[nH]c2c(NS(C)(=O)=O)cccc12 [Example 47, N-[3-(1-Methyl-1-quinolin-6-yl-ethyl)-1H-indol-7-yl]-methanesulfonamide] |
| < 500 | < 500 | CCCC(C)(c1ccc(OC)cc1)c1c[nH]c2c(N)cccc12 (stereo not shown) [Example 50, 3-[1-(4-Methoxy-phenyl)-1-methyl-butyl]-1H-indol-7-ylamine] |
| < 500 | < 500 | CCC(CC)(c1ccc(C)cc1)c1c[nH]c2c(NS(C)(=O)=O)cccc12 [Example 54, N-[3-(1-Ethyl-1-p-tolyl-propyl)-1H-indol-7-yl]-methanesulfonamide] |
| < 500 | < 500 | COc1ccc(C(C)(C)c2c[nH]c3c(NS(C)(=O)=O)cccc23)cc1 [Example 55, N-{3-[1-(4-Methoxy-phenyl)-1-methyl-ethyl]-1H-indol-7-yl}-methanesulfonamide] |
| < 500 | < 500 | CCC(CC)(c1ccc(Cl)cc1)c1c[nH]c2c(NS(C)(=O)=O)cccc12 [Example 56, N-{3-[1-(4-Chloro-phenyl)-1-ethyl-propyl]-1H-indol-7-yl}-methanesulfonamide] |
| < 500 | < 500 | CCC(CC)(c1ccc(C)cc1F)c1c[nH]c2c(NS(C)(=O)=O)cccc12 [Example 57, N-{3-[1-Ethyl-1-(2-fluoro-4-methyl-phenyl)-propyl]-1H-indol-7-yl}-methanesulfonamide] |
| < 500 | < 500 | CCC(CC)(c1ccc(C)c(C)c1)c1c[nH]c2c(NS(C)(=O)=O)cccc12 [Example 58, N-{3-[1-(3,4-Dimethyl-phenyl)-1-ethyl-propyl]-1H-indol-7-yl}-methanesulfonamide] |
| < 500 | < 500 | CCC(CC)(c1ccc(C)cc1C)c1c[nH]c2c(NS(C)(=O)=O)cccc12 [Example 60, N-{3-[1-(2,4-Dimethyl-phenyl)-1-ethyl-propyl]-1H-indol-7-yl}-methanesulfonamide] |
| < 500 | < 500 | CCC(CC)(c1ccccc1)c1c[nH]c2c(NS(C)(=O)=O)cccc12 [Example 61, N-[3-(1-Ethyl-1-phenyl-propyl)-1H-indol-7-yl]-methanesulfonamide] |
| < 500 | < 500 | CCC(CC)(c1ccc(C(F)(F)F)cc1)c1c[nH]c2c(NS(C)(=O)=O)cccc12 [Example 63, N-{3-[1-Ethyl-1-(4-trifluoromethyl-phenyl)-propyl]-1H-indol-7-yl}-methanesulfonamide] |
| < 500 | < 500 | CCC(CC)(c1ccc(F)c(F)c1)c1c[nH]c2c(NS(C)(=O)=O)cccc12 [Example 64, N-{3-[1-(3,4-Difluoro-phenyl)-1-ethyl-propyl]-1H-indol-7-yl}-methanesulfonamide] |
| < 500 | < 500 | CCC(C)(c1ccc(C)cc1)c1c[nH]c2c(NS(C)(=O)=O)cccc12 (stereo not shown) [Example 65, N-[3-(1-Methyl-1-p-tolyl-propyl)-1H-indol-7-yl]-methanesulfonamide] |
| < 500 | < 500 | CCc1ccc(C(CC)(CC)c2c[nH]c3c(NS(C)(=O)=O)cccc23)cc1 [Example 66, N-{3-[1-Ethyl-1-(4-ethyl-phenyl)-propyl]-1H-indol-7-yl}-methanesulfonamide] |
| < 500 | < 500 | CCC(CC)(c1ccccc1C)c1c[nH]c2c(NS(C)(=O)=O)cccc12 [Example 67, N-[3-(1-Ethyl-1-o-tolyl-propyl)-1H-indol-7-yl]-methanesulfonamide] |
